In patent publication US20140004243A1, “SALTY TASTE ENHANCER” (AJINOMOTO CO., INC., priority 2011, published 2014):

Biological target: T1, Human ENaC δ, β and γ subunit (Homo sapiens, UniProt P51168+P51170+P51172)
T1 construct: expressed in transfected cells; host or cells: Xenopus laevis (African clawed frog) oocytes injected with cRNA
T1 sequence (P51172 1-802): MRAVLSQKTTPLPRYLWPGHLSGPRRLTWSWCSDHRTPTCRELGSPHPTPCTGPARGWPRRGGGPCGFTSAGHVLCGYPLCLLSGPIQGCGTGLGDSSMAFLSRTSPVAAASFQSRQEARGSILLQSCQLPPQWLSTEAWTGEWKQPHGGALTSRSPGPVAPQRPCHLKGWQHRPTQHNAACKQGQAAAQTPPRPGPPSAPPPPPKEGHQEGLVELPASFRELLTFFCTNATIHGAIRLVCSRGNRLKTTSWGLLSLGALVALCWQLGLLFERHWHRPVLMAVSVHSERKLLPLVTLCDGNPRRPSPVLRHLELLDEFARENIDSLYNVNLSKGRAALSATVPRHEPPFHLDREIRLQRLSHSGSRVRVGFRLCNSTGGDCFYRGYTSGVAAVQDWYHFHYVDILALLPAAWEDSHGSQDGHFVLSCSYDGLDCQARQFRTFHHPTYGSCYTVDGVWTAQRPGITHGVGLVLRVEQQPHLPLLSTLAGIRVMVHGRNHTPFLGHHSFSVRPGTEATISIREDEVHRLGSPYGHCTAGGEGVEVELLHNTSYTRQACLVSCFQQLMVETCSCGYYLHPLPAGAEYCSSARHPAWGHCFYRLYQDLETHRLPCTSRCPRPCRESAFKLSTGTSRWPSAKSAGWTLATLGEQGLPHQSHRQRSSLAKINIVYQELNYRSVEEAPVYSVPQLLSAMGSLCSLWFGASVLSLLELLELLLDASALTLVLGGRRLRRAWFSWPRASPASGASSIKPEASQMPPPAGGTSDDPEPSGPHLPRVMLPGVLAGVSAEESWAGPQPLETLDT
T1 sequence (P51168 1-640): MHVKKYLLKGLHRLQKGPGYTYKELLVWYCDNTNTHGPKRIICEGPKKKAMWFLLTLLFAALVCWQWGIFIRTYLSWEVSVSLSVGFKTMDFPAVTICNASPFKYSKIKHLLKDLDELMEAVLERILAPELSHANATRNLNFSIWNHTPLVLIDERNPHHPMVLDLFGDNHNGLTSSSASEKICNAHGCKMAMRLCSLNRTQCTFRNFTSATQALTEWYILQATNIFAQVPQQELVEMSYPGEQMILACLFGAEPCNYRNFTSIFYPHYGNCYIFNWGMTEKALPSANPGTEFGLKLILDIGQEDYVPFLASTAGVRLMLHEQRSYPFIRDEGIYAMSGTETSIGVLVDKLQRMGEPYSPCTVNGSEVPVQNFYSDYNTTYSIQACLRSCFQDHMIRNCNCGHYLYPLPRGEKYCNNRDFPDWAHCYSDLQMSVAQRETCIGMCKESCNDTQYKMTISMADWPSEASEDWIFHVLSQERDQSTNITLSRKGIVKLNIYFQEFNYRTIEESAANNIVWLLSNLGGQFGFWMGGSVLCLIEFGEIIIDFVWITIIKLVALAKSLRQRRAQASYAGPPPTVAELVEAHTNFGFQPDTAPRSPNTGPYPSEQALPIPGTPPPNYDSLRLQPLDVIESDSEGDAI
T1 sequence (P51170 1-649): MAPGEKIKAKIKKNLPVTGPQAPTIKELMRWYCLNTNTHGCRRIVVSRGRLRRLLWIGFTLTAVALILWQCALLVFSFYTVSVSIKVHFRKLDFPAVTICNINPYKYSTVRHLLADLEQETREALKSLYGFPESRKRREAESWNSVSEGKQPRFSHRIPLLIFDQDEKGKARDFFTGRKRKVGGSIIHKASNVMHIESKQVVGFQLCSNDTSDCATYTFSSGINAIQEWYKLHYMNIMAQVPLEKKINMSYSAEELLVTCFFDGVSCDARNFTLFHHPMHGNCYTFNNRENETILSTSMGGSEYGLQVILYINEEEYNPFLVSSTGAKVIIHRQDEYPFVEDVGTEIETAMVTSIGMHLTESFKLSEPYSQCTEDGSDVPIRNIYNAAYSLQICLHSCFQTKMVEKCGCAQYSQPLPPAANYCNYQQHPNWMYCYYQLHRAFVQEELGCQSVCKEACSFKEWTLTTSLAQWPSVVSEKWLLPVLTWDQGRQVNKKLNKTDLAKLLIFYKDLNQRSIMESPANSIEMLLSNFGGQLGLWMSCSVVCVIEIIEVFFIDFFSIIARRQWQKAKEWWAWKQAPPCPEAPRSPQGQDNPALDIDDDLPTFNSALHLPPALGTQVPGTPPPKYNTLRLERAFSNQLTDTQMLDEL
Assay: Measurement of ENaC activation potency (MED) in ENaC-expressing oocyte, Two Electrode Voltage Clamp
Assay type: cell-based
Details: minimum effective dose at which current started to increase; ENaC-expressing African clawed frog oocyte; smaller MED = higher ENaC activation potency
Procedure: ENaC activation current value, namely, the inward current in ENaC-expressing oocyte was measured as follows.
According to the method described in Motonao Nakamura, Takao Shimizu: Experiment of African clawed frog oocyte, Experimental Medicine Vol. 11, No. 3, 224-232 (1993), oocyte was collected from African clawed frog, […], and the current value was measured by a Two Electrode Voltage Clamp technique. In the present invention, ND96 (96 mM NaCl, 2 mM KCl, 1 mM MgCl2, 5 mM Hepes, 1.8 mM CaCl2, pH 7.6) was used instead of MBS buffer in the above-mentioned document. Injector NANOLITER 2000 manufactured by World Precision Instruments was used for microinjection, OpusXpress 6000A manufactured by Molecular Devices was used for current value measurement by a Two Electrode Voltage Clamp technique, and Clampfit 10.2 software manufactured by Molecular Devices was used for data analysis.
Human ENaC δ, β and γ subunit genes shown by SEQ ID NOs: 1, 2 and 3, respectively, in the Sequence Listing were each cloned into a plasmid vector, and used as a template DNA for cRNA synthesis. cRNA was synthesized using MEGAscript kit manufactured by Ambion and according to the method of the manual of the manufacturer.
A mixture of the same amount of ENaC […] cRNA (0.4 to 0.8 μg/μL), and β and γ subunits cRNA (0.4 μg/μL) was injected into the oocyte of African clawed frog at […] per oocyte, and the oocyte was cultured for 16 hr-72 hr. Thereafter, the oocyte was set on a measuring apparatus OpusXpress 6000A, the electrodes were inserted into the oocyte, the voltage was clamped at a level lower by −30 mV than the resting membrane potential by a Two Electrode Voltage Clamp technique, and the current value was measured.
To measure the ENaC activation potency, oocyte was stimulated with each test compound, and the minimum effective dose (hereinafter to be abbreviated as MED) of the compound at the time point when the electric current started to increase was measured. In this case, whichever smaller value of the minimum effective dose of the stimulation compound that increased the current value by not less than 10%, and the minimum effective concentration of the compound that increased, by not less than 25%, the electric current increase value due to the stimulation by 5 μM capsazepine (CAS NO.: 138977-28-3), as compared to the current value before addition of the compound and without stimulation, was taken as MED. A smaller MED means higher ENaC activation potency.
Each test compound was directly dissolved in ND96, or first dissolved in dimethyl sulfoxide (DMSO) to 100 mM, and then prepared by diluting the solution with ND96 to a concentration used for the evaluation. The concentration of the test compound in ND96 was prepared to various concentrations within the range of 0.1 nM to 300 μm.
ND96 as a perfusion fluid was flown at a rate of 0.5 mL/min through the measuring apparatus OpusXpress 6000A on which ENaC-expressing oocyte was set, the perfusion fluid was temporarily stopped every 3 minutes to add a test compound solution (0.25 mL) dissolved in ND96 at a rate of 0.5 mL/min. In this way, the test compound was contacted with ENaC-expressing oocyte, and whether ENaC is activated by the compound was examined by measuring the current value. After addition of the test compound, feeding of the perfusion fluid was resumed to wash away the compound to be ready for the next addition of the compound.
The compound was added successively from a low concentration to a high concentration to stimulate ENaC-expressing oocyte. The concentrations actually added was, for example, 1 nM, 3 nM, 10 nM, 30 nM, 100 nM, 300 nM; 1 μM, 3 μM, 10 μm, 30 μm, 100 μm, 300 μm; 1.2 μM, 6 μM, 30 μm, 150 μm of one test compound. The compound was added from low concentrations to high concentrations at 3 min intervals. […]

SMILES	MED
Oc1cc2c(cc1O)CN(C(=S)NCCc1ccccc1)CC2 [Example 41, N-(2-phenylethyl)-3,4-dihydro-6,7-dihydroxyisoquinoline-2(1H)-carbothioamide]	3 µM
S=C(NCCc1ccccc1)NCCc1ccccc1 [Example 13]	10 µM
Oc1ccc(CNC(=S)NCCc2ccc(Cl)cc2)cc1O [Example 1]	1 µM
S=C(NCc1ccccc1)NCC(c1ccccc1)c1ccccc1 [Example 59]	10 µM
C[C@H](NC(=S)N[C@H](C)c1ccccc1)c1ccccc1 [Example 24]	3.3 µM
S=C(NCCc1ccc(Cl)cc1)NCCc1c[nH]c2ccccc12 [Example 6]	30 µM
CN(Cc1ccc(O)c(O)c1)C(=S)NCCc1ccccc1 [Example 42, 1-(3,4-dihydroxybenzyl)-1-methyl-3-(2-phenylethyl)thiourea]	1 µM
S=C(NCCc1ccccc1)NCCc1c[nH]c2ccccc12 [Example 7]	5 µM
COc1cccc(CCNC(=S)NCc2ccccc2)c1 [Example 60]	10 µM
S=C(NCc1ccccc1)N1CCc2ccccc2C1 [Example 27]	10 µM
Oc1ccc(CNC(=S)NCc2ccccc2)cc1O [Example 45]	3 µM
S=C(NCCc1ccccc1Cl)NCc1ccccc1 [Example 73]	3 to 10 µM
Oc1ccc(NC(=S)NCCc2ccccc2)cc1O [Example 47, 1-(3,4-dihydroxyphenyl)-3-(2-phenylethyl)thiourea]	5 µM
COC(=O)c1ccccc1NC(=S)N(C)CCc1ccccc1 [Example 37]	3 µM
S=C(NCCc1ccccc1)NCc1cccnc1 [Example 31]	1 µM
COc1ccccc1CCNC(=S)NCc1ccccc1 [Example 29]	3.3 µM
Oc1cccc(CCNC(=S)NCc2ccccc2)c1 [Example 63]	3.3 µM
S=C(NCCCc1ccccc1)NCc1ccccc1 [Example 18]	10 µM
COC(=O)c1ccc(CNC(=S)NCCc2ccccc2)cc1 [Example 56]	10 µM
S=C(NCCc1ccccc1)Nc1ccccc1 [Example 9]	3 µM
COc1ccc(CCNC(=S)NCc2ccccc2)cc1 [Example 16]	3 µM
COc1cc(CNC(=S)NCCc2ccccc2)cc(OC)c1 [Example 67]	10 µM
O=[N+]([O-])c1ccc(CNC(=S)NCCc2ccccc2)cc1 [Example 64]	30 µM
O=C(O)c1ccc(CNC(=S)NCCc2ccccc2)cc1 [Example 23]	10 µM
OC[C@@H](Cc1ccccc1)NC(=S)NCc1ccccc1 [Example 52]	1 µM

Results, then the compound that gave them:

MED	SMILES
3 µM	NC(=O)[C@@H](NC(=S)NCCc1ccccc1)c1ccccc1 [Example 103]
10 µM	CC(C)(C)OC(=O)Nc1cccc(CNC(=S)NCCc2ccccc2)c1 [Example 78, tert-butyl 3-{[3-(2-phenylethyl)thioureido]methyl}phenylcarbamate]
0.6 µM	C[C@@H](NC(=S)NCCc1ccccc1O)c1ccccc1 [Example 85]
1 µM	C[C@@H](NC(=S)Nc1c(O)cccc1O)c1ccccc1 [Example 91]
1 µM	CC[C@@H](NC(=S)NCCc1ccccc1O)c1ccccc1 [Example 98]
0.06 to 0.1 µM	C[C@@H](NC(=S)NCCc1ccccc1C(=O)O)c1cccc(O)c1 [Example 125, 2-(2-{3-[(R)-1-(3-hydroxyphenyl)ethyl]thioureido}ethyl)benzoic acid]
0.3 µM	C[C@@H](NC(=S)N[C@H](Cc1ccc(O)cc1)C(=O)O)c1cccc(O)c1 [Example 109]
1 µM	COC(CNC(=S)NCc1ccccc1)c1ccccc1 (centres unmarked) [Example 77]
0.1 µM	C[C@@H](NC(=S)NCC(O)c1cc(O)ccc1O)c1cccc(O)c1 (some centres unmarked) [Example 112]
1 µM	O=C(O)[C@@H](NC(=S)NCCc1ccccc1)c1ccccc1 [Example 101]
0.06 to 0.1 µM	C[C@@H](NC(=S)NCC(O)c1cc(Cl)ccc1O)c1cccc(O)c1 (some centres unmarked) [Example 115]
1 µM	CS(=O)(=O)Nc1cccc(CNC(=S)NCCc2ccccc2)c1 [Example 86, 1-[3-(mesylamino)benzyl]-3-(2-phenylethyl)thiourea]
0.1 to 0.3 µM	CN(CCc1ccccc1)C(=S)Nc1ccc(O)cc1C(=O)O [Example 120]
